The values that follow come from PMC12301034, “Design and Synthesis of Boronic Chalcones with Dual Anticancer and Anti-Inflammatory Activity” (Molecules, 2025).

The structures appear in SMILES notation. “Also recorded” adds a separate entry of the source.

One data set has as its system HCT116 p53^−/− cells. Kind of data set: SRB cytotoxicity assay on HCT116 p53-/- cells. Particulars: Homo sapiens, HCT-116, 48 h of treatment. The format is cell-based, human. The source says: The SCC-25 (ATCC® CRL-1628™), Detroit-562 (ATCC® CCL-138™), and THP-1 (ATCC® TIB-202™) cells were purchased from Rio de Janeiro Cell Bank (Duque de Caxias, Brazil), and NOK-si was kindly provided by Prof. Carlos Rossa from the School of Dentistry—UNESP. All the cells were cultivated according to standard conditions. Human colorectal adenocarcinoma HCT116 cell lines (ATCC® CCL-247™) expressing p53 and its p53-null isogenic derivative (HCT116 p53^−/−) were provided by B. Vogelstein (The Johns Hopkins Kimmel Cancer Center, Baltimore, MD, USA).
HCT p53^+/+ and HCT p53^−/− cell lines were seeded in 96-well plates, with a concentration of 5000 cells/well, and allowed to adhere overnight. Afterwards, they were treated with serial dilutions of the compounds for an additional 48 h (compounds were prepared at 30 mM, in DMSO, and tested with a starting concentration of 50μM and 15 μM). Cells passed then through a series of essential steps (fixation with 10% trichloroacetic acid, for 1 h at 4 °C; staining with 0.4% sulforhodamine B (SRB); wash with 1% acetic acid; and solubilization with 10 mM Tris-Base); subsequently, absorbance was measured at 510 nm in a microplate reader (Biotek Instruments Inc., Synergy, MX, USA). IC50 values were determined using GraphPad Prism software, Version 7.0 (La Jolla, CA, USA).

A further data set concerns SCC-25 cells. Kind of data set: Annexin V-FITC/PI apoptosis/necrosis assay. The settings on record: SCC-25, 44.3 μM, 24 h. The format is cell-based, human. The procedure:
For the assessment of the type of cell death, the treatment groups were 44.3 μM, 22.1 μM, and 9.45 μM compound 5, and the negative control without any treatment (only DMEM medium). Then, after 24 h of treatment, cell suspensions of 1 × 10^6 mL^–^1 (SCC-25) of each experimental condition were labeled, and the assay was performed according to the manufacturer’s protocol with the FITC Annexin V/Dead Cell Apoptosis Kit (Life Technologies, Eugene, OR, USA). Annexin V-FITC conjugated (510 nm) and propidium iodide (PI, 610 nm) fluorescence intensity were detected by automatic reading with the Countess™ II FL Automated Cell Counter (Life Technologies, Carlsbad, CA, USA). The cell population was calculated as a percentage of apoptotic cells labeled only with annexin V-FITC conjugated (green), necrotic cells labeled only as PI (red), and late apoptotic/necrotic cells (green and red).

The nature of data set [1]: Distribution coefficient (eLogD) by HPLC retention time. Type of data set: physicochemical. Particulars: Supelco Ascentis Express RP Amide column, pH 7.4, read-out: LogD7.4. The method, then:
The determination of the experimental distribution coefficient (eLogD) was based on the retention time of molecules in the stationary phase using high-performance liquid chromatography (HPLC). Chromatographic analysis was performed on a Supelco Ascentis Express RP Amide HPLC column (5 cm × 2.1 mm, 2.7 μm), with a binary gradient mobile phase consisting of (A) 5% methanol in 10 mM ammonium acetate pH 7.4 and (B) 100% methanol. The mobile phase was eluted as follows: 0 min, 95% A; 0.3 min, 100% A; 5.2 min, 0% A; 5.6 min, 0% A; 5.8 min, 100% A; 7.0 min, 100% A. The total run time was 7 min, with a sample injection volume of 5 μL. Test compounds were prepared by diluting stock solutions (1.0 mg/mL in DMSO) in a mixture of mobile phases A:B (1:1 v/v) containing an internal standard (200 nM), achieving a final concentration of 1.0 μg/mL (final DMSO concentration ≤ 1%). The prepared solutions were transferred to a 96-well plate in duplicate, which was then sealed and introduced into the autosampler for analysis. […]. These reference and control compounds were injected at the beginning and end of the experimental procedure. A calibration graph was obtained by plotting the retention times of the reference compounds against their respective LogD values. The resulting equation (y = mx + b) was used to calculate the eLogD7.4 values for the test compounds and controls. […]

By IC50 is commonly meant the concentration that gives 50% inhibition. As to `COc1cccc(C(=O)/C=C/c2cccc(B(O)O)c2)c1` [Compound 5, (E)-(3-(3-(3-methoxyphenyl)-3-oxoprop-1-en-1-yl)phenyl)boronic acid], the IC50 in the data set with HCT116 p53^−/− cells stood at 2160 ± 310 nM. For the same compound, in the data set on SCC-25 cells (Homo sapiens, read-out: proportion of viable cells), the viability at 44.3 µM was under 5%. Also, in the data set with SCC-25 cells (22.1 μM and 9.45 μM), the “type of cell death” value is listed as “necrosis; also recorded: predominantly induces necrotic cell death”. Also, in data set [1], the chromatographic logD was determined as 3.92.
